Results on seven compounds are retold here after ChEMBL document CHEMBL5316329, “Structure-Based Optimization of 2,4,5-Trisubstituted Pyrimidines as Potent HIV-1 Non-Nucleoside Reverse Transcriptase Inhibitors: Exploiting the Tolerant Regions of the Non-Nucleoside Reverse Transcriptase Inhibitors' Binding Pocket” (J Med Chem, 2023).

Series [1] concerns Human immunodeficiency virus 1. Description: Antiviral activity against HIV-1 harboring L100I mutant infected in human MT4 cells assessed as virus-induced cytopathicity treated for 5 days by MTT assay. The series is classed as functional, organism-based. To be noted: Human immunodeficiency virus 1, MT4, 120 h; read-out: EC50. On the technique in general: Cytopathic effects are the visible damage that an infection or toxin causes in cultured cells.

Series [2] concerns Human immunodeficiency virus 1. Description: Antiviral activity against HIV-1 harboring K103N mutant infected in human MT4 cells assessed as virus-induced cytopathicity treated for 5 days by MTT assay. To be noted: Human immunodeficiency virus 1, MT4, 120 h; read-out: EC50. The series is classed as functional, organism-based.
Series [3] can be described thus: Selectivity index, ratio of CC50 for human MT4 cells to EC50 for NNRTI-resistant HIV-1 RES056 infected in human MT4 cells. The series is classed as toxicity, cell-based. To be noted: read-out: Selectivity Index.
A short description of series [4]: Selectivity index, ratio of CC50 for human MT4 cells to EC50 for wild-type HIV-1 IIIB infected in human MT4 cells. The series is classed as toxicity, cell-based. As to conditions: read-out: Selectivity Index.
A short description of series [5]: Cytotoxicity against human MT4 cells assessed as reduction in cell viability treated for 5 days by MTT assay. The series is classed as toxicity, cell-based. As to conditions: time 5 day.
Series [6] concerns the target Human immunodeficiency virus type 1 reverse transcriptase (Human immunodeficiency virus 1, UniProt Q72547). As to the kind of experiment: Inhibition of wild-type HIV-1 reverse transcriptase assessed as inhibition of biotin-dUTP incorporation.
Series [7] has as its system Human immunodeficiency virus 1. Description: Antiviral activity against HIV-1 harboring Y188L mutant infected in human MT4 cells assessed as virus-induced cytopathicity treated for 5 days by MTT assay. The series is classed as functional, organism-based. As to conditions: Human immunodeficiency virus 1, MT4, 120 h; read-out: EC50.
The test system of series [8] is Human immunodeficiency virus 1. Description: Antiviral activity against HIV-1 F227L/V106A mutant infected in human MT4 cells assessed as virus-induced cytopathicity treated for 5 days by MTT assay. The series is classed as functional, organism-based. As to conditions: Human immunodeficiency virus 1, MT4, 120 h; read-out: EC50.
Series [9] deals with Human immunodeficiency virus 1. As to the kind of experiment: Antiviral activity against HIV-1 E138K mutant infected in human MT4 cells assessed as virus-induced cytopathicity treated for 5 days by MTT assay. The series is classed as functional, organism-based. To be noted: Human immunodeficiency virus 1, MT4, 120 h; read-out: EC50.
Series [10] deals with Human immunodeficiency virus 1. Description: Antiviral activity against NNRTI-resistant HIV-1 RES056 infected in human MT4 cells assessed as virus-induced cytopathicity treated for 5 days by MTT assay. The series is classed as functional, organism-based. As to conditions: Human immunodeficiency virus 1, RES056, MT4, 120 h.
The test system of series [11] is Human immunodeficiency virus 1. Description: Antiviral activity against HIV-1 harboring Y181C mutant infected in human MT4 cells assessed as virus-induced cytopathicity treated for 5 days by MTT assay. To be noted: Human immunodeficiency virus 1, MT4, 120 h; read-out: EC50. The series is classed as functional, organism-based.
The subject of series [12] is Human immunodeficiency virus 1. Description: Antiviral activity against wild-type HIV-1 IIIB infected in human MT4 cells assessed as virus-induced cytopathicity treated for 5 days by MTT assay. To be noted: Human immunodeficiency virus 1, IIIB, MT4, 120 h. The series is classed as functional, organism-based.

On to `Cc1cc(/C=C/C#N)cc(C)c1Oc1nc(NC2CCN(Cc3ccc(C(N)=O)cc3)CC2)ncc1-c1ccc2c(c1)OCO2`, for which the half-maximal effective concentration (EC50) stood at 8.21 nM in [1]; 5.64 nM in [2]; 58.1 nM in [7]; 46.9 nM in series [8]; 19.4 nM in series [9]; 38.3 nM in [10]. Further, the EC50 in [11] is 9.42 nM; in [12], 4.17 nM. The values for the selectivity ratio in [3] and in series [4] were 139 and 1280, respectively. For the same compound, the CC50 at 120 h in [5] was 5320 nM. The 50% inhibitory concentration (IC50) in series [6] came to 110 nM.
As for `Cc1cc(/C=C/C#N)cc(C)c1Oc1nc(NC2CCN(Cc3ccc(S(N)(=O)=O)cc3)CC2)ncc1-c1cccc(N)c1`, the concentration for a half-maximal effect (EC50) in series [1] was 7.05 nM; in series [2], 6.11 nM; in series [7], 46.5 nM; in series [8] it was 11.4 nM; in [9] it was 11.2 nM; in [10], 25.8 nM. For the same compound, the results for the half-maximal effective concentration (EC50) in series [11] and in [12] were 103 nM and 6.16 nM, respectively. The figures for the selectivity ratio in series [3] and in series [4] were 269 and 1130, respectively. In series [5], the CC50 at 120 h is 6940 nM. In addition, the concentration for half-maximal inhibition (IC50) in series [6] stood at 134 nM.
`Cc1cc(/C=C/C#N)cc(C)c1Cc1nc(NC2CCN(Cc3ccc(S(N)(=O)=O)cc3)CC2)ncc1-c1cncnc1`: the concentration for a half-maximal effect (EC50) in [1] is 4.52 nM; in [2], 5.02 nM; in [7] it was 41.9 nM; in series [8], 15.3 nM; in [9], 13.4 nM; in series [10], 37.8 nM. For the same compound, the EC50 turned out to be 8.21 nM in series [11] and 5.4 nM in [12]. The results for the selectivity ratio in series [3] and in series [4] were 299 and 2090, respectively. The CC50 at 120 h in series [5] is 11300 nM. The half-maximal inhibitory concentration (IC50) in series [6] is 117 nM.
With `CC(=O)c1ccc(-c2cnc(NC3CCN(Cc4ccc(S(N)(=O)=O)cc4)CC3)nc2Oc2c(C)cc(/C=C/C#N)cc2C)cc1`, the concentration for a half-maximal effect (EC50) was determined as 10.8 nM in series [1]; 5.18 nM in series [2]; 28.5 nM in [7]; 22.6 nM in [8]; 12 nM in [9]; 40.7 nM in series [10]. The results for the concentration giving a half-maximal response (EC50) in series [11] and in series [12] were 10.2 nM and 5.34 nM, respectively. The selectivity ratio amounted to 198 in [3] and 1520 in [4]. For the same compound, the cytotoxic concentration (CC50) at 120 h in series [5] stood at 8090 nM. In series [6], the IC50 came to 130 nM.
As for `Cc1cc(/C=C/C#N)cc(C)c1Oc1nc(NC2CCN(Cc3ccc(S(N)(=O)=O)cc3)CC2)ncc1-c1cccc(O)c1`, the EC50 in [1] was found to be 11.6 nM; in series [2], 5.61 nM; in series [7], 33 nM; in [8], 25 nM; in [9], 18.5 nM; in [10], 36.1 nM. Moreover, the figures for the EC50 in series [11] and in [12] were 16 nM and 6.32 nM, respectively. Moreover, the values for the selectivity ratio in series [3] and in series [4] were 215 and 1240, respectively. Further, the CC50 at 120 h in series [5] was 7850 nM. Besides, the concentration for half-maximal inhibition (IC50) in series [6] stood at 115 nM.
Consider `Cc1cc(/C=C/C#N)cc(C)c1Oc1nc(NC2CCN(Cc3ccc(S(N)(=O)=O)cc3)CC2)ncc1-c1ccc2c(c1)OCO2`, for which the EC50 was determined as 10.6 nM in series [1]; 6.3 nM in series [2]; 47.8 nM in [7]; 35.7 nM in series [8]; 40.5 nM in series [9]; 47 nM in series [10]. Besides, the results for the EC50 in series [11] and in series [12] were 10.7 nM and 5.48 nM, respectively. The selectivity ratio in series [3] was determined as 136; in [4], 1170. Also, the CC50 at 120 h in [5] stood at 6400 nM. For the same compound, in series [6], the half-maximal inhibitory concentration (IC50) was 122 nM.
`Cc1cc(/C=C/C#N)cc(C)c1Oc1nc(NC2CCN(Cc3ccc(C(N)=O)cc3)CC2)ncc1-c1cccc(O)c1`: the half-maximal effective concentration (EC50) came out at 11.6 nM in series [1]; 5.31 nM in series [2]; 39.3 nM in series [7]; 13.1 nM in series [8]; 21.1 nM in series [9]; 35.2 nM in [10]. The concentration giving a half-maximal response (EC50) was 9.7 nM in [11] and 4.62 nM in series [12]. In addition, the selectivity ratio in series [3] turned out to be 1050; in series [4], 8000. Moreover, the CC50 at 120 h in series [5] worked out at 36900 nM. For the same compound, the IC50 in series [6] worked out at 88 nM.

In general, EC50 refers to the concentration giving half of the maximal effect. As usually defined, the CC50 is the concentration that lowers cell viability or growth by half. As a reminder, the IC50 is the concentration that gives 50% inhibition.
